The values that follow are results of earlier work, collected in patent US11529357B2, “Injectable carbamazepine composition essentially free of 10-bromo-carbamazepine” (H. Lundbeck A/S, priority 2019, dated 2022).

On to `NC(=O)N1c2ccccc2C=Cc2ccccc21` [carbamazepine, 5H-dibenzo[b,f]azepine-5-carboxamide], for which the average oral bioavailability is recorded as 65-70%.
